Data set [1] concerns M. tuberculosis (strain H37Rv). In words: MIC against M. tuberculosis strain H37Rv. Type of data set: cell-based. The conditions noted are these: Mycobacterium tuberculosis.
In the next data set the test system is M. avium-intracellulare. In words: MIC / growth inhibition against M. avium-intracellulare. It counts as cell-based, Mycobacterium avium-intracellulare.
A further data set has as its system M. bovis BCG. As to the kind of experiment: microbe, parasite or virus in culture. Type of data set: cell-based. The conditions noted are these: Mycobacterium tuberculosis variant bovis BCG.
For a further data set, the system named is M. bovis BCG cell wall. Type of data set: cell-based, Mycobacterium bovis. The conditions noted are these: dividing M. bovis BCG in the presence of III-50.
The subject of data set [2] is mycolic acid synthesis in M. avium-intracellulare. As to the kind of experiment: Metabolic labeling, two-dimensional TLC of mycolic acids, M. avium-intracellulare. It counts as cell-based, Mycobacterium avium-intracellulare. The conditions noted are these: M. avium-intracellulare cultures treated with 12.5 μg/ml.
In data set [3] the test system is mycolic acid synthesis in M. bovis BCG. It counts as cell-based, Mycobacterium bovis. The conditions noted are these: M. bovis BCG in the presence of III-50.
Where [4] appears, read: M. tuberculosis strain H37Rv, in vitro, read-out: MIC MTB.
The mark [5] stands for this setting: Mycobacterium avium-intracellulare, M. avium-intracellulare, in vitro, read-out: MIC MAI.
Where [6] appears, read: M. avium-intracellulare, routinely isoniazid resistant.

Converted amounts (≈) assume the structure as drawn. Read-outs that look alike come from different tables or passages of the source.

Turning to `CCCCCCCC[S+]([O-])CC(=O)OC` (stereo not shown) [HIII-302], the MIC in data set [1] (setting [4]) is over 25 µg/mL. As for `CCCCCCCCCCS(=O)(=O)CC(N)=O` [SI-73], the MIC in data set [1] (H37RV) turned out to be 3.12 µg/mL (≈ 11.8 µM); in data set [1] (setting [4]), 3.12 µg/mL (≈ 11.8 µM); in the data set with M. avium-intracellulare (setting [5]), 12.5 µg/mL (≈ 47.5 µM); against M. avium-intracellulare (dose-response curves, M. avium-intracellular), 12.50 µg/mL (≈ 47.5 µM).

`CCCCCCCCCCS(=O)(=O)CC(=O)NCC(O)CO` (stereo not shown) [SI-48]: in data set [1] (setting [4]), the MIC was over 25 µg/mL. Still for that read-out and setting: the value for `CC(C)CCCC(C)CCS(=O)(=O)CC(N)=O` (stereo not shown) [SI-52] was 6.25 µg/mL (≈ 23.7 µM).

In the data set with M. avium-intracellulare (setting [6]), `NNC(=O)c1ccncc1` [isoniazid, reference compound] showed an isoniazid resistance level of over 2.5 µg/mL.

With `CCCCCCCCCCS(=O)(=O)/C=C\C(N)=O` [JRG-I-89-1], in data set [1] (setting [4]), the MIC stood at 25 µg/mL (≈ 90.8 µM).

On to `CCCCCCCCCCS(=O)(=O)C=CC(N)=O` [JRG-I-89-3], for which, in data set [1] (setting [4]), the MIC was 6.25 µg/mL (≈ 22.7 µM). In the case of `CCCCCCCCCCS(=O)(=O)CC(=O)NCCO` [SI-45], the MIC in data set [1] (setting [4]) turned out to be 12.5 µg/mL (≈ 40.7 µM); in the data set on M. bovis BCG (read-out: MIC BCG), 25 µg/mL (≈ 81.3 µM). As to `CCCCCCCCCCS(=O)(=O)C=CC(=O)OC` (mixture of isomers) [JRG-I-31(mixture of cisand trans)], the MIC in data set [1] (setting [4]) was found to be 50 µg/mL. Turning to `CCCCCCCCS(=O)(=O)CC(N)=O` [HIII-50, n-Octanesulphonylacetamide], the MIC in data set [1] (H37RV) is 6.5 µg/mL (≈ 27.6 µM); in data set [1] (setting [4]), 6.25 µg/mL (≈ 26.6 µM); with M. bovis BCG, 6.25 µg/mL (≈ 26.6 µM); with M. bovis BCG (read-out: MIC BCG), 6.25 µg/mL (≈ 26.6 µM); with M. avium-intracellulare (setting [5]), 25 µg/mL (≈ 106 µM). In addition, the “cell wall morphology in electron micrographs” value in the data set with M. bovis BCG cell wall is “disruption of the cell wall”. The “mycolic acids by phosphorimage of 2D TLC” value in data set [2] was “undetectable”; in data set [3] it was “significantly reduced”. Further, in the data set on M. avium-intracellulare (setting [6]), the growth inhibition result is on record as “inhibits”. As to `CCCCCCCCCC[S+]([O-])CC(N)=O` (stereo not shown) [SI-46], in data set [1] (setting [4]), the MIC is 6.25 µg/mL (≈ 25.3 µM).

As to `CCCCCCCCCCS(=O)(=O)/C=C/C(=O)O` [JRG-I-43], the MIC in data set [1] (setting [4]) came out at 50 µg/mL (≈ 181 µM). For the compound `CCCCCCCCCCS(=O)(=O)/C=C/C(=O)OC` [JRG-I-31], the melting point (as a rule, the temperature of the solid-liquid transition) lay in the range of 62 to 63 °C.

With `CCCCCCCCS(=O)(=O)NCC(=O)O` [HIII-56], the MIC (in data set [1] (setting [4]); in the data set on M. bovis BCG (read-out: MIC BCG)) was over 25 µg/mL throughout. On to `CCCCCCCC[S+]([O-])CC(=O)OCc1ccccc1` (stereo not shown) [HIII-206a], for which the MIC in data set [1] (setting [4]) was determined as 6.25 µg/mL (≈ 20.1 µM). Still for that read-out and setting: the value for `CCCCCCCCCCS(=O)(=O)/C=C/C(N)=O` [JRG-I-89-2] was 12.5 µg/mL (≈ 45.4 µM); that for `CCCCCCCCS(=O)(=O)CC(=O)OCc1ccccc1` [HIII-206b] was 12.5 µg/mL (≈ 38.3 µM); that for `CCCCCCCCCCS(=O)(=O)CCC(N)=O` [DI-59] was over 25 µg/mL.

Values taken from US7385086B2 (priority 1997, dated 2008).
